From patent US11458123B2 (Arvinas, Inc., priority 2016, dated 2022)

System: tau protein
Assay: Tau protein in vitro degradation assay (Western blot, Tau-13 antibody)
Assay type: cell-based, human
Conditions: SK-N-SH cells, 72 hours of incubation; for Degradation activity (tau protein remaining; highest amount of degradation observed at any dosage) / Degradation activity* (highest amount of degradation observed at any dosage; tau protein remaining): tested at 300 nM, 100 nM, 33 nM and 11 nM, Western blot, Tau-13 antibody; for Activity* (highest amount of degradation observed at any dosage, as tau protein remaining): tested at 1000 nM, 300 nM and 100 nM
Summary of the method: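 SK-N-SH cells, seeded ≥18 h beforehand, were incubated 72 h with tau PROTACs at 1000, 300 and 100 nM or at 300, 100, 33 and 11 nM. Lysates in protease-inhibitor buffer were resolved by SDS-PAGE; tau quantified by Western blot with Tau-13 antibody recognising all human tau forms.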

SMILES | Activity* (highest amount of degradation observed at any dosage, as tau protein remaining) | Degradation activity* (highest amount of degradation observed at any dosage; tau protein remaining) | also measured
Cn1c2ccncc2c2ccc(-c3ccc(O[C@H]4C[C@H](N(C)C(=O)C56CC(COCCCCOc7ccc8c(c7)C(=O)N(C7CCC(=O)NC7=O)C8=O)(C5)C6)C4)nc3)cc21 (some centres unmarked) [Compound 199, 3-((4-((2-(2,6-dioxopiperidin-3-yl)-1,3-dioxoisoindolin-5-yl)oxy)butoxy)methyl)-N-methyl-N-((1r,3r)-3-((5-(5-methyl-5H-pyrido[4,3-b]indol-7-yl)pyridin-2-yl)oxy)cyclobutyl)bicyclo[1.1.1]pentane-1-carboxamide] |  |  | Degradation activity (tau protein remaining; highest amount of degradation observed at any dosage): C (>80% tau protein remaining after 72 hours of incubation with the test compound)
Cc1ncsc1-c1ccc([C@H](C)NC(=O)[C@@H]2C[C@@H](O)CN2C(=O)[C@@H](NC(=O)COCCOCCOCCOc2ccc3nc(-c4ccc(N(C)C)cc4)ccc3c2)C(C)(C)C)cc1 [Compound 30, (2S,4R)-1-((S)-2-tert-butyl-14-(2-(4-(dimethylamino)phenyl)quinolin-6-yloxy)-4-oxo-6,9,12-trioxa-3-azatetradecane)-4-hydroxy-N—((S)-1-(4-(4-methylthiazol-5-yl)phenyl)ethyl)pyrrolidine-2-carboxamide] | C (>80% tau protein remaining after 72 hours of incubation with the test compound) |  | 
Cn1c2ccncc2c2ccc(-c3ccc(O[C@H]4C[C@H](Oc5ccc(C#CCCCOc6ccc7c(c6)C(=O)N(C6CCC(=O)NC6=O)C7=O)nc5)C4)nc3)cc21 (some centres unmarked) [Compound 94, 2-(2,6-dioxopiperidin-3-yl)-5-((5-(5-((1r,3r)-3-((5-(5-methyl-5H-pyrido[4,3-b]indol-7-yl)pyridin-2-yl)oxy)cyclobutoxy)pyridin-2-yl)pent-4-yn-1-yl)oxy)isoindoline-1,3-dione] |  | C (>80% tau protein remaining after 72 hours of incubation with the test compound) | 
O=C1CCC(N2C(=O)c3cccc(NCCOCCOCCOCCOCCN4CCN(c5ccn6c(n5)nc5ccccc56)CC4)c3C2=O)C(=O)N1 (centres unmarked) [Compound 26, 4-((14-(4-(benzo[4,5]imidazo[1,2-a]pyrimidin-2-yl)piperazin-1-yl)-3,6,9,12-tetraoxatetradecyl)amino)-2-(2,6-dioxopiperidin-3-yl)isoindoline-1,3-dione] | C (>80% tau protein remaining after 72 hours of incubation with the test compound) |  | 
Cn1c2ccncc2c2ccc(-c3ccc(CCCOCCOCCOCCOCCOc4ccc5c(c4)C(=O)N(C4CCC(=O)NC4=O)C5=O)nc3)cc21 (centres unmarked) [Compound 74, 2-(2,6-dioxopiperidin-3-yl)-5-((15-(5-(5-methyl-5H-pyrido[4,3-b]indol-7-yl)pyridin-2-yl)-3,6,9,12-tetraoxapentadecyl)oxy)isoindoline-1,3-dione] |  | A (≤50% tau protein remaining after 72 hours of incubation with the test compound) | 
Cn1c2ccncc2c2ccc(-c3ccc(OCC#CCOCCCCOCCCCOc4ccc5c(c4)C(=O)N(C4CCC(=O)NC4=O)C5=O)nc3)cc21 (centres unmarked) [Compound 90, 2-(2,6-dioxopiperidin-3-yl)-5-(4-(4-((4-((5-(5-methyl-5H-pyrido[4,3-b]indol-7-yl)pyridin-2-yl)oxy)but-2-yn-1-yl)oxy)butoxy)butoxy)isoindoline-1,3-dione] |  | A (≤50% tau protein remaining after 72 hours of incubation with the test compound) | 
Cn1c2ccncc2c2ccc(-c3ccc(O[C@H]4C[C@H](OCCCOCCCN5CC(Oc6ccc7c(c6)C(=O)N(C6CCC(=O)NC6=O)C7=O)C5)C4)nc3)cc21 (some centres unmarked) [Compound 99, 2-(2,6-dioxopiperidin-3-yl)-5-((1-(3-(3-((1r,3r)-3-((5-(5-methyl-5H-pyrido[4,3-b]indol-7-yl)pyridin-2-yl)oxy)cyclobutoxy)propoxy)propyl)azetidin-3-yl)oxy)isoindoline-1,3-dione] |  | A (≤50% tau protein remaining after 72 hours of incubation with the test compound) | 
Cc1ncsc1-c1ccc(CNC(=O)[C@@H]2C[C@@H](O)CN2C(=O)[C@@H](NC(=O)COCCOCCOCC(=O)N2CCN(c3ccn4c(n3)nc3ccccc34)CC2)C(C)(C)C)cc1 [Compound 10] | C (>80% tau protein remaining after 72 hours of incubation with the test compound) |  | 
Cn1c2ccncc2c2ccc(-c3ccc(O[C@H]4C[C@H](OCC#CCOCCOC5CN(c6ccc7c(c6)C(=O)N(C6CCC(=O)NC6=O)C7=O)C5)C4)nc3)cc21 (some centres unmarked) [Compound 212, 2-(2,6-dioxopiperidin-3-yl)-5-(3-(2-((4-((1r,3r)-3-((5-(5-methyl-5H-pyrido[4,3-b]indol-7-yl)pyridin-2-yl)oxy)cyclobutoxy)but-2-yn-1-yl)oxy)ethoxy)azetidin-1-yl)isoindoline-1,3-dione] |  |  | Degradation activity (tau protein remaining; highest amount of degradation observed at any dosage): A (≤50% tau protein remaining after 72 hours of incubation with the test compound)
Cn1c2ccncc2c2ccc(-c3ccc(N4CCC(CCN5CCN(c6ccc7c(c6)CN(C6CCC(=O)NC6=O)C7=O)CC5)CC4)nc3)cc21 (centres unmarked) [Compound 128, 3-(5-(4-(2-(1-(5-(5-methyl-5H-pyrido[4,3-b]indol-7-yl)pyridin-2-yl)piperidin-4-yl)ethyl)piperazin-1-yl)-1-oxoisoindolin-2-yl)piperidine-2,6-dione] |  | C (>80% tau protein remaining after 72 hours of incubation with the test compound) | 
Cn1c2ccncc2c2ccc(-c3ccc(O[C@H]4C[C@H](Oc5ccc(C#CCN6CC(Oc7ccc8c(c7)C(=O)N(C7CCC(=O)NC7=O)C8=O)C6)nc5)C4)nc3)cc21 (some centres unmarked) [Compound 152, 2-(2,6-dioxopiperidin-3-yl)-5-((1-(3-(5-((1r,3r)-3-((5-(5-methyl-5H-pyrido[4,3-b]indol-7-yl)pyridin-2-yl)oxy)cyclobutoxy)pyridin-2-yl)prop-2-yn-1-yl)azetidin-3-yl)oxy)isoindoline-1,3-dione] |  | A (≤50% tau protein remaining after 72 hours of incubation with the test compound) | 
O=C1CCC(N2C(=O)c3ccc(OCCCCCN4CCC(O[C@H]5C[C@H](Oc6ccc(-c7ccc8c(c7)[nH]c7ccncc78)cn6)C5)CC4)cc3C2=O)C(=O)N1 (some centres unmarked) [Compound 65, 5-((5-(4-((1r,3r)-3-((5-(5H-pyrido[4,3-b]indol-7-yl)pyridin-2-yl)oxy)cyclobutoxy)piperidin-1-yl)pentyl)oxy)-2-(2,6-dioxopiperidin-3-yl)isoindoline-1,3-dione] |  | C (>80% tau protein remaining after 72 hours of incubation with the test compound) | 
Cc1ncsc1-c1ccc([C@H](C)NC(=O)[C@@H]2C[C@@H](O)CN2C(=O)[C@@H](NC(=O)COCCCCOc2ccc3nc(-c4ccc(N(C)C)cc4)ccc3c2)C(C)(C)C)cc1 [Compound 34, (2S,4R)-1-((S)-2-(2-(4-(2-(4-(dimethylamino)phenyl)quinolin-6-yloxy)butoxy)acetamido)-3,3-dimethylbutanoyl)-4-hydroxy-N—((S)-1-(4-(4-methylthiazol-5-yl)phenyl)ethyl)pyrrolidine-2-carboxamide] | C (>80% tau protein remaining after 72 hours of incubation with the test compound) |  | 
Cc1ncsc1-c1ccc(CNC(=O)[C@@H]2C[C@@H](O)CN2C(=O)[C@H](C(C)C)N2Cc3ccccc3C2=O)c(OCCOCCOCCOCCOCCOc2ccc(-c3ccc4c(c3)[nH]c3ccncc34)cn2)c1 [Compound 201, (2S,4R)—N-(2-((14-((5-(5H-pyrido[4,3-b]indol-7-yl)pyridin-2-yl)oxy)-3,6,9,12-tetraoxatetradecyl)oxy)-4-(4-methylthiazol-5-yl)benzyl)-4-hydroxy-1-((S)-3-methyl-2-(1-oxoisoindolin-2-yl)butanoyl)pyrrolidine-2-carboxamide] |  |  | Degradation activity (tau protein remaining; highest amount of degradation observed at any dosage): C (>80% tau protein remaining after 72 hours of incubation with the test compound)
Cn1c2ccncc2c2ccc(-c3ccc(O[C@H]4C[C@H](OCCOCCOCCC5CN(c6ccc7c(c6)C(=O)N(C6CCC(=O)NC6=O)C7=O)C5)C4)nc3)cc21 (some centres unmarked) [Compound 190, 2-(2,6-dioxopiperidin-3-yl)-5-(3-(2-(2-(2-((1r,3r)-3-((5-(5-methyl-5H-pyrido[4,3-b]indol-7-yl)pyridin-2-yl)oxy)cyclobutoxy)ethoxy)ethoxy)ethyl)azetidin-1-yl)isoindoline-1,3-dione] |  |  | Degradation activity (tau protein remaining; highest amount of degradation observed at any dosage): C (>80% tau protein remaining after 72 hours of incubation with the test compound)
Cc1ncsc1-c1ccc(CNC(=O)[C@@H]2C[C@@H](O)CN2C(=O)[C@@H](NC(=O)COCCOCCOCCOc2ccc3nc(-c4ccc(N(C)C)cc4)ccc3c2)C(C)(C)C)cc1 [Compound 29, (2S,4R)-1-((S)-2-tert-butyl-14-(2-(4-(dimethylamino)phenyl)quinolin-6-yloxy)-4-oxo-6,9,12-trioxa-3-azatetradecane)-4-hydroxy-N-(4-(4-methylthiazol-5-yl)benzyl)pyrrolidine-2-carboxamide] | C (>80% tau protein remaining after 72 hours of incubation with the test compound) |  | 
Cc1ncoc1-c1ccc(CNC(=O)[C@@H]2C[C@@H](O)CN2C(=O)[C@@H](NC(=O)COCCOCCOCCOCC(=O)N2CCN(c3ccn4c(n3)nc3ccccc34)CC2)C(C)(C)C)cc1 [Compound 14, (2S,4R)-1-((S)-17-(4-(benzo[4,5]imidazo[1,2-a]pyrimidin-2-yl)piperazin-1-yl)-2-(tert-butyl)-4,17-dioxo-6,9,12,15-tetraoxa-3-azaheptadecanoyl)-4-hydroxy-N-(4-(4-methyloxazol-5-yl)benzyl)pyrrolidine-2-carboxamide] | C (>80% tau protein remaining after 72 hours of incubation with the test compound) |  | 
